Test [1] concerns Euglena gracilis Z. The test can be described thus: Study 3: photocurrent after addition of Euglena and of electron transport inhibitor DBMIB. In kind it is cell-based. Particulars: DBMIB 100 μM added after about 37 minutes to PMF 3 g/L medium with Euglena; current before about 8 μA. The procedure: To determine whether the effect of the medium supplemented with PMF in facilitating the proliferation of Euglena in electrochemical culture as shown by the Studies 1 and 2 is attributed to extracellular transfer of electrons from Euglena, DBMIB (2,5-dibromo-3-methyl-6-isopropyl-p-benzoquinone), which is an electron transport inhibitor, was added to the culture system that included PMF, and a change in photocurrent was measured.
DBMIB binds to the plastoquinone-binding site of the cytochrome b6f and prevents the oxidation of reduced plastoquinone thereby inhibiting electron transport. DBMIB inhibits the transfer of electrons from plastoquinone to the photosystem I and thus is used to measure the activity of the photosystem II.
In the Study 3, the CM medium having a PMF concentration of 3 g/L was placed into the same three-electrode electrochemical cell as the Study 1. Then, the electrochemical cell was placed into a shielded enclosure to measure the photocurrent.
After about 21 minutes from the start of the measurement, the precultured Euglena was added at an initial density (OD800) of 0.5. After about 37 minutes from the start of the measurement, DBMIB was added at a concentration of 100 μM to the medium.

Test [2] has as its system Euglena gracilis Z. As to the kind of experiment: Study 2 and reference study: proliferation (cell density) of Euglena under strong or weak light. To be noted: 0.5 mM ascorbic acid in place of PMF. The test is classed as cell-based. The protocol:
The CM medium having a PMF concentration of 0.5 g/L was placed into the same three-electrode electrochemical cell as the Study 1.
To the medium, the precultured Euglena was added at an initial density (OD800) of 0.05 and electrochemically cultured under strong light having an intensity of 5000 lux, which is about one tenth of the maximum intensity of sunlight. After 0, 24, 48, 76, 96, and 148 hours from the start of the culture, the cell density was determined (Example 2). The voltage applied was +0.6 V vs. SHE.
A similar study was performed on Euglena non-electrochemically cultured in the medium that included no PMF (Comparative Example 3).
A similar study was also performed on Euglena electrochemically cultured in the medium that included PMF (Comparative Example 4) and Euglena electrochemically cultured in the medium that included no PMF (Comparative Example 5) under weak light having an intensity of 1000 lux, which is about one fiftieth of the maximum intensity of sunlight.
In the study, proliferation of Euglena that were cultured in the medium supplemented with or without 0.5 mM of ascorbic acid in place of PMF used in the Study 2 under strong light or under weak light was compared. The study was performed in the same manner as in the Study 2 except that 0.5 mM of ascorbic acid was added in place of PMF.

Each structure is given as a SMILES string.

For the molecule `CC1=C(Br)C(=O)C(C(C)C)=C(Br)C1=O` [DBMIB, 2,5-dibromo-3-methyl-6-isopropyl-p-benzoquinone], the “current after addition of DBMIB” value in the test with Euglena gracilis Z [1] is listed as “about 4 μA”. Consider `O=C1O[C@H]([C@@H](O)CO)C(O)=C1O` [ascorbic acid], for which, in the test on Euglena gracilis Z [2] (strong light (5000 lux)), the “facilitating the proliferation of Euglena under strong light” value is “effective in facilitating the proliferation of Euglena”. In addition, the “facilitating the proliferation of Euglena under weak light” value with Euglena gracilis Z [2] (weak light (1000 lux)) is “not effective in facilitating the proliferation”.

(Values after patent publication US20160281077A1, “MEDIUM AND METHOD FOR CULTURING EUGLENA AND METHOD FOR REDUCING PHOTOINHIBITION IN EUGLENA” (Euglena Co., Ltd., priority 2015, published 2016).)
